Reference: ChEMBL document CHEMBL1150746, “Native American food and medicinal plants, 8. Water-soluble constituents of Lomatium dissectum” (1988)

Tested on: Xanthomonas campestris
Assay: Antimicrobial activity against Xanthomonas campestris at 0.5 mg/disk
Format: functional

Structure (SMILES): O=c1cc(-c2ccc(O)c(O)c2)oc2cc(O[C@@H]3O[C@H](CO)[C@@H](O)[C@H](O)[C@H]3O)cc(O)c12 [GALUTEOLIN]
- inhibition zone (IZ): 3 mm
